System: interferon regulatory factor (IRF) pathway in THP1-Dual™ cells
Test: THP1-Dual reporter gene assay (Agonist_THP1_EC50)
Assay type: cell-based
Details: Homo sapiens, 20-24 hrs compound treatment, Lucia luciferase (IRF) readout
From the text: This is the cellular reporter assay to evaluate compounds' agonism to interferon regulatory factor (IRF) pathway in THP1-Dual™ cells (InvivoGen, cat number thpd-nfis). THP1-Dual™ cells were derived from the human THP-1 monocyte cell line by stable integration lucia luciferase gene, a new secreted luciferase reporter gene, under the control of an ISG54 (interferon-stimulated gene) minimal promoter in conjunction with five interferon (IFN)-stimulated response elements. As a result, THP1-Dual™ cells allow the study of the IRF pathway, by assessing the activity of Lucia luciferase. Lucia luciferase protein is readily measurable in the cell culture supernatant when using QUANTI-Luc™ (InvivoGen, cat: rep-qlcg-500).
After 20-24 hrs compound treatment in THP1-Dual cells, the compounds' agonism to IRF pathway and cell toxicity were tested by measuring luminescence and OD 450 on an Envision plate reader.
On the day of experiment, 30 μL of test medium (RPMI 1640, 2 mM L-glutamine, 25 mM HEPES, […] heat-inactivated fetal bovine serum) was dispensed in a white 384-well plate (Grenier, cat: 781098) containing the serially diluted compounds (final 1% DMSO) transferred by the Echo550 machine. Then 30 μL of cell suspension (˜33,000 cells, 1.1×10^6 cells/mL) per well was added immediately by thermo multidrop combi dispenser for incubation 20-24 h at 37° C., […]. At the end of the incubation, 10 μL of cellular supernatant was transferred to proxiplate 384-plus plate for IRF detection, and then 10 μL of QUANTI-Luc™ Gold solution was added to the plate that proceeded with the measurement immediately. To detect cell viability, 30 μL of the CCK-8 working solution (Dojindo Molecular Technologies, cat: CK04-20) was added to the cell plate, which was Incubated for 2 hrs in the incubator to measure the absorbance at 450 nm using Envision.

EC50 [nM]	Compound
23	Cc1cc2c(C(N)=O)nn(-c3nc(-c4c(O)c(C)nn4CCc4cccc(C#N)c4)n[nH]3)c2cn1 [Example 60, 1-[3-[2-[2-(3-cyanophenyl)ethyl]-4-hydroxy-5-methyl-pyrazol-3-yl]-1H-1,2,4-triazol-5-yl]-5-methyl-pyrazolo[3,4-c]pyridine-3-carboxamide]
36	Cc1cc2c(C(N)=O)nn(-c3nc(-c4c(O)c(C)nn4CC4CC4)n[nH]3)c2cn1 [Example 32, 1-[3-[2-(cyclopropylmethyl)-4-hydroxy-5-methyl-pyrazol-3-yl]-1H-1,2,4-triazol-5-yl]-5-methyl-pyrazolo[3,4-c]pyridine-3-carboxamide]
45	COCCn1nc(C)c(O)c1-c1n[nH]c(-n2nc(C(N)=O)c3cc(C)ncc32)n1 [Example 42, 1-[3-[4-hydroxy-2-(2-methoxyethyl)-5-methyl-pyrazol-3-yl]-1H-1,2,4-triazol-5-yl]-5-methyl-pyrazolo[3,4-c]pyridine-3-carboxamide]
49	COc1cccc(CCn2nc(C)c(O)c2-c2nc(-n3nc(C(N)=O)c4cc(C)ncc43)co2)c1 [Example 75, 1-(2-(4-hydroxy-1-(3-methoxyphenethyl)-3-methyl-1H-pyrazol-5-yl)oxazol-4-yl)-5-methyl-1H-pyrazolo[3,4-c]pyridine-3-carboxamide]
26	Cc1cc2c(C(N)=O)nn(-c3nc(-c4c(O)c(C)nn4CC=C(F)F)n[nH]3)c2cn1 [Example 63, 1-(3-(1-(3,3-difluoroallyl)-4-hydroxy-3-methyl-1H-pyrazol-5-yl)-1H-1,2,4-triazol-5-yl)-5-methyl-1H-pyrazolo[3,4-c]pyridine-3-carboxamide]
55	COCc1ccc(CCn2nc(C)c(O)c2-c2nc(-n3nc(C(N)=O)c4cc(C)ncc43)co2)cc1 [Example 89, 1-[2-[4-hydroxy-2-[2-[4-(methoxymethyl)phenyl]ethyl]-5-methyl-pyrazol-3-yl]oxazol-4-yl]-5-methyl-pyrazolo[3,4-c]pyridine-3-carboxamide]
141	CCn1nc(C)c(O)c1-c1nc(-n2nc(C(N)=O)c3cc(C)ncc32)co1 [Example 21, 1-[2-(2-ethyl-4-hydroxy-5-methyl-pyrazol-3-yl)oxazol-4-yl]-5-methyl-pyrazolo[3,4-c]pyridine-3-carboxamide]
606	CCn1nc(C)c(O)c1-c1n[nH]c(-c2cc(C(N)=O)n3cc(C)ncc23)n1 [Example 3, 8-[3-(2-ethyl-4-hydroxy-5-methyl-pyrazol-3-yl)-1H-1,2,4-triazol-5-yl]-3-methyl-pyrrolo[1,2-a]pyrazine-6-carboxamide]
49	CCCn1nc(C)c(O)c1-c1nc(-c2nc(C(N)=O)n3cc(C)ncc23)co1 [Example 85, 1-[2-(4-hydroxy-5-methyl-2-propyl-pyrazol-3-yl)oxazol-4-yl]-6-methyl-imidazo[1,5-a]pyrazine-3-carboxamide]
27	Cc1cc2c(C(N)=O)nn(-c3nc(-c4c(O)c(C)nn4CCC(F)F)n[nH]3)c2cn1 [Example 66, 1-(3-(1-(3,3-difluoropropyl)-4-hydroxy-3-methyl-1H-pyrazol-5-yl)-1H-1,2,4-triazol-5-yl)-5-methyl-1H-pyrazolo[3,4-c]pyridine-3-carboxamide]
15	Cc1cn2c(C(N)=O)nc(-c3nc(-c4c(O)c(C)nn4CCc4ccc(CO)cc4)n[nH]3)c2cn1 [Example 71, 1-[3-[4-hydroxy-2-[2-[4-(hydroxymethyl)phenyl]ethyl]-5-methyl-pyrazol-3-yl]-1H-1,2,4-triazol-5-yl]-6-methyl-imidazo[1,5-a]pyrazine-3-carboxamide]
618	CCn1nc(C)c(O)c1-c1nc(-n2cc(C(N)=O)c3cc(C)ncc32)co1 [Example 29, 1-[2-(2-ethyl-4-hydroxy-5-methyl-pyrazol-3-yl)oxazol-4-yl]-5-methyl-pyrrolo[2,3-c]pyridine-3-carboxamide]
548	CCn1nc(C)c(O)c1-c1n[nH]c(-c2nc(C(N)=O)n3cc(Cl)ncc23)n1 [Example 18, 6-chloro-1-[3-(2-ethyl-4-hydroxy-5-methyl-pyrazol-3-yl)-1H-1,2,4-triazol-5-yl]imidazo[1,5-a]pyrazine-3-carboxamide]
179	Cc1cc2c(C(N)=O)nn(-c3coc(-c4c(O)c(C)nn4CCc4ccc(CN5CCOCC5)cc4)n3)c2cn1 [Example 88, 1-[2-[4-hydroxy-5-methyl-2-[2-[4-(morpholinomethyl)phenyl]ethyl]pyrazol-3-yl]oxazol-4-yl]-5-methyl-pyrazolo[3,4-c]pyridine-3-carboxamide]
275	Cc1nn(CCn2ccnc2)c(-c2n[nH]c(-c3nc(C(N)=O)cc4c3cnn4C)n2)c1O [Example 23, 4-[3-[4-hydroxy-2-(2-imidazol-1-ylethyl)-5-methyl-pyrazol-3-yl]-1H-1,2,4-triazol-5-yl]-1-methyl-pyrazolo[4,3-c]pyridine-6-carboxamide]
48	Cc1cc2c(C(N)=O)nn(-c3nc(-c4c(O)c(C)nn4CCCF)n[nH]3)c2cn1 [Example 41, 1-[3-[2-(3-fluoropropyl)-4-hydroxy-5-methyl-pyrazol-3-yl]-1H-1,2,4-triazol-5-yl]-5-methyl-pyrazolo[3,4-c]pyridine-3-carboxamide]
127	Cc1nn(CCCC#N)c(-c2n[nH]c(-c3nc(C(N)=O)cc4c3cnn4C)n2)c1O [Example 24, 4-[3-[2-(3-cyanopropyl)-4-hydroxy-5-methyl-pyrazol-3-yl]-1H-1,2,4-triazol-5-yl]-1-methyl-pyrazolo[4,3-c]pyridine-6-carboxamide]
13	Cc1cc2c(C(N)=O)nn(-c3nc(-c4c(O)c(C)nn4CCc4ccccc4F)n[nH]3)c2cn1 [Example 56, 1-[3-[2-[2-(2-fluorophenyl)ethyl]-4-hydroxy-5-methyl-pyrazol-3-yl]-1H-1,2,4-triazol-5-yl]-5-methyl-pyrazolo[3,4-c]pyridine-3-carboxamide]
15	Cc1cn2c(C(N)=O)nc(-c3nc(-c4c(O)c(C)nn4CCc4cccnc4)n[nH]3)c2cn1 [Example 72, 1-[3-[4-hydroxy-5-methyl-2-[2-(3-pyridyl)ethyl]pyrazol-3-yl]-1H-1,2,4-triazol-5-yl]-6-methyl-imidazo[1,5-a]pyrazine-3-carboxamide]
97	Cc1cc2c(C(N)=O)nn(-c3nc(-c4c(O)c(C)nn4CCc4ccncc4)n[nH]3)c2cn1 [Example 46, 1-[3-[4-hydroxy-5-methyl-2-[2-(4-pyridyl)ethyl]pyrazol-3-yl]-1H-1,2,4-triazol-5-yl]-5-methyl-pyrazolo[3,4-c]pyridine-3-carboxamide]
419	CCn1nc(C)c(O)c1-c1nc(-c2nc(C(N)=O)cc3c2cnn3C)c(C(F)F)o1 [Example 10, 4-[5-(difluoromethyl)-2-(2-ethyl-4-hydroxy-5-methyl-pyrazol-3-yl)oxazol-4-yl]-1-methyl-pyrazolo[4,3-c]pyridine-6-carboxamide]
340	CCn1nc(C)c(O)c1-c1n[nH]c(-c2nc(C(N)=O)n3cc(C(F)F)ncc23)n1 [Example 26, 6-(difluoromethyl)-1-[3-(2-ethyl-4-hydroxy-5-methyl-pyrazol-3-yl)-1H-1,2,4-triazol-5-yl]imidazo[1,5-a]pyrazine-3-carboxamide]
829	CCn1nc(C)c(O)c1-c1nc(-c2nc(C(N)=O)n3cc(C)ncc23)co1 [Example 9, 1-[2-(2-ethyl-4-hydroxy-5-methyl-pyrazol-3-yl)oxazol-4-yl]-6-methyl-imidazo[1,5-a]pyrazine-3-carboxamide]
82	CCn1nc(C)c(O)c1-c1n[nH]c(-n2nc(C(N)=O)c3cc(C)ncc32)n1 [Example 22, 1-[3-(2-ethyl-4-hydroxy-5-methyl-pyrazol-3-yl)-1H-1,2,4-triazol-5-yl]-5-methyl-pyrazolo[3,4-c]pyridine-3-carboxamide]
44	COC(=O)c1ccc(CCn2nc(C)c(O)c2-c2n[nH]c(-n3nc(C(N)=O)c4cc(C)ncc43)n2)cc1 [Example 62, Methyl 4-[2-[5-[5-(3-carbamoyl-5-methyl-pyrazolo[3,4-c]pyridin-1-yl)-1H-1,2,4-triazol-3-yl]-4-hydroxy-3-methyl-pyrazol-1-yl]ethyl]benzoate]
79	Cc1nn(CCn2nccn2)c(-c2n[nH]c(-c3nc(C(N)=O)cc4c3cnn4C)n2)c1O [Example 35, 4-[3-[4-hydroxy-5-methyl-2-[2-(triazol-2-yl)ethyl]pyrazol-3-yl]-1H-1,2,4-triazol-5-yl]-1-methyl-pyrazolo[4,3-c]pyridine-6-carboxamide]
283	CCn1nc(C)c(O)c1-c1n[nH]c(-c2cc(C(N)=O)c3cc(C)ncn23)n1 [Example 20, 7-[3-(2-ethyl-4-hydroxy-5-methyl-pyrazol-3-yl)-1H-1,2,4-triazol-5-yl]-3-methyl-pyrrolo[1,2-c]pyrimidine-5-carboxamide]
90	COc1ccc(CCn2nc(C)c(O)c2-c2nc(-n3nc(C(N)=O)c4cc(C)ncc43)co2)cc1 [Example 78, 1-(2-(4-hydroxy-1-(4-methoxyphenethyl)-3-methyl-1H-pyrazol-5-yl)oxazol-4-yl)-5-methyl-1H-pyrazolo[3,4-c]pyridine-3-carboxamide]
